Measured values as given in patent US9623028B2, “Methods of treating a cancer using substituted pyrrolopyrimidine compounds, compositions thereof” (Signal Pharmaceuticals, LLC, priority 2014, dated 2017).
Where two headings read alike, the source gives them in different places.

What was measured:
CLK2 = CLK2 (Homo sapiens (Human), UniProt P49760); test: biochemical; conditions: read-out: CLK2 (% Inh.), % inhibition at 3 μM
[1] = tested on: non small cell lung cancer (NSCLC) cell lines; test: cells
breast cancer cell lines = test: cells; conditions: for IC50: read-out: Growth Inhibition IC50; for GI50: read-out: Growth inhibition GI50
CLK1 = CLK1 (Homo sapiens (Human), UniProt P49759); test: biochemical; conditions: read-out: CLK1 (% Inh.), % inhibition at 3 μM
[2] = Homo sapiens, MDA-MB-175-VII, 96 h

Sequence of CLK1 (P49759 whole entry): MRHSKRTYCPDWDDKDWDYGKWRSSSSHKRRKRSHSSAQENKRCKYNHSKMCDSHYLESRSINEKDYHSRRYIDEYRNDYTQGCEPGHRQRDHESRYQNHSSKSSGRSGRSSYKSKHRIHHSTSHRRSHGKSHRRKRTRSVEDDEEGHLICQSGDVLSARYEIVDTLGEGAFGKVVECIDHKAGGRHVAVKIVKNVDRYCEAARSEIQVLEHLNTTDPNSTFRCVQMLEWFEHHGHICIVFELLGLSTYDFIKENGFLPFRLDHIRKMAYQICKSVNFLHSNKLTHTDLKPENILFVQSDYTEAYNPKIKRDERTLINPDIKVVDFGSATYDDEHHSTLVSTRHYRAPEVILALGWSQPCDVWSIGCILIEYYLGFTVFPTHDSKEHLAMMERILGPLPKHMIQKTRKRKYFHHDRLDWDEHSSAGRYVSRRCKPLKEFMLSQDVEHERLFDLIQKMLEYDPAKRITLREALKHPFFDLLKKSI
Sequence of CLK2 (P49760 whole entry): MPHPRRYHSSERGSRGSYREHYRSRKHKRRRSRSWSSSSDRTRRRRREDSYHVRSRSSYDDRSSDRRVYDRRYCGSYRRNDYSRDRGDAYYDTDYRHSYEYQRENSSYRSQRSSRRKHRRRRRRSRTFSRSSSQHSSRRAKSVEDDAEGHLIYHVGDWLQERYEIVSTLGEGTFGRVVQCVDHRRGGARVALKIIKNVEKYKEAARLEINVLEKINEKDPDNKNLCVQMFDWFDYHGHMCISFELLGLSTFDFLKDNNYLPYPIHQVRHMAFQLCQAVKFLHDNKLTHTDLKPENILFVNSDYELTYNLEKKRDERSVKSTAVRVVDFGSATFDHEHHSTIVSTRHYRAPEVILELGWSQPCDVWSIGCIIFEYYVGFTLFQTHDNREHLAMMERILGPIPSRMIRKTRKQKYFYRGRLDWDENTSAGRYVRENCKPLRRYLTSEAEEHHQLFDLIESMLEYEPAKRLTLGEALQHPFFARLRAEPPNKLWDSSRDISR

CNC(=O)c1ccc(Nc2nc(OC3CCCC3)c3c(-c4ccc(O)cc4)c[nH]c3n2)c(OC)c1 [Compound 3, 4-((4-(cyclopentyloxy)-5-(4-hydroxyphenyl)-7H-pyrrolo[2,3-d]pyrimidin-2-yl)amino)-3-methoxy-N-methylbenzamide]
inhibition at 3 µM (CLK2): 104%
IC50 ([1]; Homo sapiens, A549, 72 h, read-out: Average IC50 (μM)): 0.05 µM
IC50 ([1]; Homo sapiens, HOP-62, 72 h, read-out: Average IC50 (μM)): 0.05 µM
IC50 ([1]; Homo sapiens, HOP-92, 72 h, read-out: Average IC50 (μM)): 1.27 µM
IC50 ([1]; Homo sapiens, NCI-H441, 72 h, read-out: Average IC50 (μM)): 2.1 µM
IC50 ([1]; Homo sapiens, NCI-H460, 72 h, read-out: Average IC50 (μM)): 0.04 µM
IC50 ([1]; Homo sapiens, NCI-H1299, 72 h, read-out: Average IC50 (μM)): 0.36 µM
IC50 ([1]; Homo sapiens, NCI-H1437, 72 h, read-out: Average IC50 (μM)): 0.39 µM
IC50 ([1]; Homo sapiens, NCI-H1563, 72 h, read-out: Average IC50 (μM)): 1.77 µM
IC50 ([1]; Homo sapiens, NCI-H1650, 72 h, read-out: Average IC50 (μM)): 0.62 µM
IC50 ([1]; Homo sapiens, NCI-H1734, 72 h, read-out: Average IC50 (μM)): 0.91 µM
IC50 ([1]; Homo sapiens, NCI-H1838, 72 h, read-out: Average IC50 (μM)): 16.1 µM
IC50 ([1]; Homo sapiens, NCI-H2228, 72 h, read-out: Average IC50 (μM)): 1.58 µM
IC50 ([1]; Homo sapiens, NCI-H2291, 72 h, read-out: Average IC50 (μM)): 16.3 µM
IC50 ([1]; Homo sapiens, SK-LU-1, 72 h, read-out: Average IC50 (μM)): 0.83 µM
IC50 ([1]; Homo sapiens, SW1573, 72 h, read-out: Average IC50 (μM)): 0.96 µM
IC50 ([1]; read-out: growth inhibition IC50 values): ≤ 2 µM
IC50 (breast cancer cell lines; EFM-192A, 96 h): 10000 nM
GI50 (breast cancer cell lines; EFM-192A, 96 h): 10000 nM
IC50 (breast cancer cell lines; HCC202, 96 h): 16000 nM
GI50 (breast cancer cell lines; HCC202, 96 h): 15000 nM
GI50 (breast cancer cell lines; HCC1500, 96 h): 53 nM
IC50 (breast cancer cell lines; Homo sapiens, AU565, 96 h): 1100 nM
GI50 (breast cancer cell lines; Homo sapiens, AU565, 96 h): 426 nM
IC50 (breast cancer cell lines; Homo sapiens, BT-20, 96 h): 608 nM
GI50 (breast cancer cell lines; Homo sapiens, BT-20, 96 h): 289 nM
IC50 (breast cancer cell lines; Homo sapiens, BT-474, 96 h): 16300 nM
GI50 (breast cancer cell lines; Homo sapiens, BT-474, 96 h): 6020 nM
IC50 (breast cancer cell lines; Homo sapiens, BT-483, 96 h): 10000 nM
GI50 (breast cancer cell lines; Homo sapiens, BT-483, 96 h): 704 nM
IC50 (breast cancer cell lines; Homo sapiens, BT-549, 96 h): 180 nM
GI50 (breast cancer cell lines; Homo sapiens, BT-549, 96 h): 85 nM
IC50 (breast cancer cell lines; Homo sapiens, CAL-51, 96 h): 9 nM
GI50 (breast cancer cell lines; Homo sapiens, CAL-51, 96 h): 8 nM
IC50 (breast cancer cell lines; Homo sapiens, CAL-85-1, 96 h): 76 nM
GI50 (breast cancer cell lines; Homo sapiens, CAL-85-1, 96 h): 25 nM
IC50 (breast cancer cell lines; Homo sapiens, CAL-120, 96 h): 10000 nM
GI50 (breast cancer cell lines; Homo sapiens, CAL-120, 96 h): 10000 nM
IC50 (breast cancer cell lines; Homo sapiens, CAMA-1, 96 h): 10700 nM
GI50 (breast cancer cell lines; Homo sapiens, CAMA-1, 96 h): 4900 nM
IC50 (breast cancer cell lines; Homo sapiens, DU-4475, 96 h): 560 nM
GI50 (breast cancer cell lines; Homo sapiens, DU-4475, 96 h): 82 nM
IC50 (breast cancer cell lines; Homo sapiens, EFM-19, 96 h): 730 nM
GI50 (breast cancer cell lines; Homo sapiens, EFM-19, 96 h): 67 nM
IC50 (breast cancer cell lines; Homo sapiens, HCC38, 96 h): 47 nM
GI50 (breast cancer cell lines; Homo sapiens, HCC38, 96 h): 17 nM
IC50 (breast cancer cell lines; Homo sapiens, HCC70, 96 h): 1950 nM
GI50 (breast cancer cell lines; Homo sapiens, HCC70, 96 h): 442 nM
IC50 (breast cancer cell lines; Homo sapiens, HCC1143, 96 h): 17500 nM
GI50 (breast cancer cell lines; Homo sapiens, HCC1143, 96 h): 286 nM
IC50 (breast cancer cell lines; Homo sapiens, HCC1187, 96 h): 881 nM
GI50 (breast cancer cell lines; Homo sapiens, HCC1187, 96 h): 470 nM
IC50 (breast cancer cell lines; Homo sapiens, HCC1428, 96 h): 4970 nM
GI50 (breast cancer cell lines; Homo sapiens, HCC1428, 96 h): 1090 nM
IC50 (breast cancer cell lines; Homo sapiens, HCC1569, 96 h): 5430 nM
GI50 (breast cancer cell lines; Homo sapiens, HCC1569, 96 h): 73 nM
IC50 (breast cancer cell lines; Homo sapiens, HCC1937, 96 h): 10000 nM
GI50 (breast cancer cell lines; Homo sapiens, HCC1937, 96 h): 7460 nM
IC50 (breast cancer cell lines; Homo sapiens, HCC1954, 96 h): 482 nM
GI50 (breast cancer cell lines; Homo sapiens, HCC1954, 96 h): 131 nM
IC50 (breast cancer cell lines; Homo sapiens, HCC2157, 96 h): 120 nM
GI50 (breast cancer cell lines; Homo sapiens, HCC2157, 96 h): 24 nM
IC50 (breast cancer cell lines; Homo sapiens, Hs-578T, 96 h): 183 nM
GI50 (breast cancer cell lines; Homo sapiens, Hs-578T, 96 h): 104 nM
IC50 (breast cancer cell lines; Homo sapiens, MCF7, 96 h): 170 nM
GI50 (breast cancer cell lines; Homo sapiens, MCF7, 96 h): 124 nM
IC50 (breast cancer cell lines; Homo sapiens, MCF-10A, 96 h): 17400 nM
GI50 (breast cancer cell lines; Homo sapiens, MCF-10A, 96 h): 426 nM
IC50 (breast cancer cell lines; Homo sapiens, MCF-12A, 96 h): 3150 nM
GI50 (breast cancer cell lines; Homo sapiens, MCF-12A, 96 h): 486 nM
GI50 (breast cancer cell lines; Homo sapiens, MDA-MB-134-VI, 96 h): 874 nM
IC50 (breast cancer cell lines; Homo sapiens, MDA-MB-157, 96 h): 695 nM
GI50 (breast cancer cell lines; Homo sapiens, MDA-MB-157, 96 h): 225 nM
IC50 (breast cancer cell lines; [2]): 8500 nM
GI50 (breast cancer cell lines; [2]): 400 nM
IC50 (breast cancer cell lines; Homo sapiens, MDA-MB-231, 96 h): 38 nM
GI50 (breast cancer cell lines; Homo sapiens, MDA-MB-231, 96 h): 22 nM
IC50 (breast cancer cell lines; Homo sapiens, MDA-MB-361, 96 h): 18800 nM
GI50 (breast cancer cell lines; Homo sapiens, MDA-MB-361, 96 h): 5480 nM
IC50 (breast cancer cell lines; Homo sapiens, MDA-MB-415, 96 h): 13500 nM
GI50 (breast cancer cell lines; Homo sapiens, MDA-MB-415, 96 h): 11700 nM
IC50 (breast cancer cell lines; Homo sapiens, MDA-MB-436, 96 h): 2100 nM
GI50 (breast cancer cell lines; Homo sapiens, MDA-MB-436, 96 h): 1380 nM
IC50 (breast cancer cell lines; Homo sapiens, MDA-MB-453, 96 h): 2790 nM
GI50 (breast cancer cell lines; Homo sapiens, MDA-MB-453, 96 h): 799 nM
IC50 (breast cancer cell lines; Homo sapiens, MDA-MB-468, 96 h): 32 nM
GI50 (breast cancer cell lines; Homo sapiens, MDA-MB-468, 96 h): 27 nM
IC50 (breast cancer cell lines; Homo sapiens, SK-BR-3, 96 h): 3690 nM
GI50 (breast cancer cell lines; Homo sapiens, SK-BR-3, 96 h): 1180 nM
IC50 (breast cancer cell lines; Homo sapiens, T47D, 96 h): 418 nM
GI50 (breast cancer cell lines; Homo sapiens, T47D, 96 h): 162 nM
IC50 (breast cancer cell lines; Homo sapiens, UACC-812, 96 h): 1790 nM
GI50 (breast cancer cell lines; Homo sapiens, UACC-812, 96 h): 842 nM
IC50 (breast cancer cell lines; Homo sapiens, ZR-75-1, 96 h): 6390 nM
GI50 (breast cancer cell lines; Homo sapiens, ZR-75-1, 96 h): 1140 nM
IC50 (breast cancer cell lines; Homo sapiens, ZR-75-30, 96 h): 30000 nM
GI50 (breast cancer cell lines; Homo sapiens, ZR-75-30, 96 h): 11600 nM
IC50 (breast cancer cell lines; KPL-1, 96 h): 693 nM
GI50 (breast cancer cell lines; KPL-1, 96 h): 245 nM
inhibition at 3 µM (CLK1): 91%
